According to article PMC10138389, “Study of Lipophilicity and ADME Properties of 1,9-Diazaphenothiazines with Anticancer Action” (International Journal of Molecular Sciences, 2023):

Assays:
[1] = experimental lipophilicity by RP-TLC (RM0, logPTLC); type: physicochemical; conditions: for −b (slope of RM = RM0 + bC) / RM0 (relative lipophilicity parameter): RP-TLC; for −b (slope of RM = RM0 + bC): RP 18F254S, acetone/TRIS buffer pH 7.4; for RM0 (relative lipophilicity parameter): extrapolation to zero acetone concentration, TRIS buffer pH 7.4; for chromatographic logP: pH 7.4, RM0 converted with the calibration curve of standards I–V; for logPTLC, 1,9-Diaza: 1,9-diazaphenothiazines, comparison table
Protocol: In the next stage, experimental measurements of the lipophilicity coefficient were performed with the use of reversed-phase thin-layer chromatography RP-TLC.
The experimental RP-TLC method provided the RM retention parameter (calculated from RF value measurements) using the following equation:RM = log (1/RF − 1)(1)
Then a calibration curve was created using the same measuring conditions. […] The calibration curve was used to convert the values of the relative lipophilicity parameter RM0 of the tested hybrids into the value of the absolute lipophilicity parameter logPTLC.
The equation of the standard curve with which it was possible to convert the relative lipophilicity parameter RM0 into the absolute parameter logPTLC is presented in Figure 2.
The RP-TLC method was used to determine the experimental lipophilicity according to the literature. Modified silica gel RP 18F254S (Merck) was used as the stationary phase and a mixture of tris(hydroxymethyl)aminomethane (TRIS) (0.2 M, buffer pH = 7.4) with acetone as the mobile phase with the range of concentrations from 40 to 70% (v/v) in 5% increments. […] Spots were observed under UV light at λ = 254 nm. Each measurement was performed in triplicate and then the RF values were calculated.

[2] = standards; cited from earlier work
[3] = tested on: melanoma C-32; set-up: method as in PMID 31307242, PMID 33807874; conditions: melanoma C-32 cell line; cited from earlier work
[4] = cited from earlier work; for logPTLC, 1,6-Diaza: 1,6-diazaphenothiazines; for logPTLC, 1,8-Diaza: 1,8-diazaphenothiazines; for logPTLC, 3,6-Diaza: 3,6-diazaphenothiazines; for logPTLC, 2,7-Diaza: 2,7-diazaphenothiazines
[5] = tested on: H3, TP53, CDKN1A, BCL-2, and BAX genes; set-up: method as in PMID 33807874; conditions: RT-QPCR, tested cell lines; cited from earlier work
[6] = tested on: SNB-19 cells; set-up: method as in PMID 33807874; conditions: Annexin V; cited from earlier work
[7] = tested on: breast cancer MDA-MB-231; set-up: method as in PMID 31307242, PMID 33807874; conditions: cited from earlier work
[8] = tested on: glioblastoma SNB-19; set-up: method as in PMID 31307242, PMID 33807874; conditions: cited from earlier work

| −b (slope of RM = RM0 + bC) [1] | RM0 (relative lipophilicity parameter) [1] | chromatographic logP [1] | SMILES | other results |
| --- | --- | --- | --- | --- |
|  |  |  | N.N.[Cl][Pt][Cl] [cisplatin, reference compound] | IC50 [3]: 13.2 µM |
|  |  |  | c1cnc2c(c1)Nc1ncccc1S2 [1,6-Diaza A, 10H-1,6-diazaphenothiazine] | logPTLC, 1,6-Diaza [4]: 2.316 |
|  |  |  | c1cnc2c(c1)Sc1ccncc1N2 [1,8-Diaza A] | logPTLC, 1,8-Diaza [4]: 1.759 |
| 0.019 |  |  | CC(=O)c1ccccc1 [II, acetophenone, reference compound] |  |
| 0.0228 | 1.8961 | 2.17 | CC(CN(C)C)CN1c2ncccc2Sc2cccnc21 (stereo not shown) [Compound 8] |  |
|  |  |  | C=CCN1c2ccncc2Sc2ncccc21 [3,6-Diaza B] | logPTLC, 3,6-Diaza [4]: 1.329 |
|  |  |  | C=CCN1c2cccnc2Sc2cccnc21 [1,6-Diaza B] | logPTLC, 1,6-Diaza [4]: 3.008 |
| 0.0180 | 1.7934 | 2.06 | CCN(CC)CCN1c2ncccc2Sc2cccnc21 [Compound 7] | expression of the CDKN1A gene [5]: enhanced; expression of the H3 gene [5]: reduced; expression of the TP53 gene [5]: reduced; early and late cell apoptosis populations [6]: slight increase |
| 0.0123 | 1.9434 | 2.21 | c1cnc2c(c1)Sc1cccnc1N2CCN1CCCC1 [Compound 9] |  |
|  |  |  | C#CCN1c2ccncc2Sc2ccncc21 [2,7-Diaza C] | logPTLC, 2,7-Diaza [4]: 1.654 |
|  |  |  | CN(C)CCCN1c2cccnc2Sc2cccnc21 [1,6-Diaza D] | logPTLC, 1,6-Diaza [4]: 1.156 |
|  |  |  | c1cnc2c(c1)Nc1ccncc1S2 [3,6-Diaza A, 10H-3,6-diazaphenothiazine] | logPTLC, 3,6-Diaza [4]: 0.952 |
| 0.0170 | 1.8096 | 2.08 | CN(C)CCCN1c2ncccc2Sc2cccnc21 [Compound 6] | logPTLC, 1,9-Diaza [1]: 2.080 |
|  |  |  | c1cc2c(cn1)Nc1ccncc1S2 [2,7-Diaza A] | logPTLC, 2,7-Diaza [4]: 1.540 |
| 0.0214 | 1.9781 | 2.25 | c1cnc2c(c1)Sc1cccnc1N2CCN1CCCCC1 [Compound 10] |  |
|  |  |  | C#CCN1c2cnccc2Sc2cccnc21 [1,8-Diaza C] | logPTLC, 1,8-Diaza [4]: 2.186 |
|  |  |  | C=CCN1c2cnccc2Sc2cccnc21 [1,8-Diaza B] | logPTLC, 1,8-Diaza [4]: 2.313 |
| 0.0195 | 1.4720 | 1.75 | C#CCN1c2ncccc2Sc2cccnc21 [Compound 4] | logPTLC, 1,9-Diaza [1]: 1.747; expression of the CDKN1A gene [5]: enhanced; expression of the H3 gene [5]: reduced; expression of the TP53 gene [5]: reduced; early and late cell apoptosis populations [6]: slight increase |
|  |  |  | C=CCN1c2ccncc2Sc2ccncc21 [2,7-Diaza B] | logPTLC, 2,7-Diaza [4]: 1.940 |
| 0.0211 | 1.9988 | 2.27 | CN1CCCCC1CCN1c2ncccc2Sc2cccnc21 (stereo not shown) [Compound 11] |  |
| 0.0278 | 1.4052 | 1.68 | C=CCN1c2ncccc2Sc2cccnc21 [Compound 3] | logPTLC, 1,9-Diaza [1]: 1.682 |
|  |  |  | CN(C)CCCN1c2cnccc2Sc2cccnc21 [1,8-Diaza D] | logPTLC, 1,8-Diaza [4]: 1.832 |
| 0.0192 | 1.3850 | 1.66 | CN1c2ncccc2Sc2cccnc21 [Compound 2] |  |
|  |  |  | C#CCN1c2ccncc2Sc2ncccc21 [3,6-Diaza C] | logPTLC, 3,6-Diaza [4]: 1.342 |
|  |  |  | C#CCN1c2cccnc2Sc2cccnc21 [1,6-Diaza C] | logPTLC, 1,6-Diaza [4]: 1.574 |
|  |  |  | CN(C)CCCN1c2ccncc2Sc2ccncc21 [2,7-Diaza D] | logPTLC, 2,7-Diaza [4]: 1.940 |
| 0.018 | 1.011 |  | CC(=O)Nc1ccccc1 [I, acetanilide, reference compound] | log P TLC (logPlit.) [2]: 1.21 [22] |
|  |  |  | CN(C)CCCN1c2ccncc2Sc2ncccc21 [3,6-Diaza D] | logPTLC, 3,6-Diaza [4]: 1.404 |
| 0.0205 | 1.7877 | 2.06 | c1ccc(CN2c3ncccc3Sc3cccnc32)cc1 [Compound 5, 10-benzyl-1,9-diazaphenothiazine] |  |
| 0.0205 | 1.1970 | 1.48 | c1cnc2c(c1)Sc1cccnc1N2 [Compound 1, 10H-1,9-diazaphenothiazine] | logPTLC, 1,9-Diaza [1]: 1.476; anticancer activity against other lines [7]: inactive; IC50 [3]: 3.83 µM; anticancer activity against other lines [8]: inactive |

| SMILES | −b (slope of RM = RM0 + bC) [1] | RM0 (relative lipophilicity parameter) [1] | chromatographic logP [1] | other results |
| --- | --- | --- | --- | --- |
| c1ccc2cc3ccccc3cc2c1 [V, anthracene, reference compound] | 0.044 | 3.588 |  | log P TLC (logPlit.) [2]: 5.53 [22] |
| CC(=O)c1ccc(Br)cc1 [III, 4-bromoacetophenone, reference compound] | 0.033 | 2.281 |  | log P TLC (logPlit.) [2]: 2.43 [23] |
| O=C(c1ccccc1)c1ccccc1 [IV, benzophenone, reference compound] | 0.034 |  |  |  |
